Patent publication US20230321100A1, “CD73 INHIBITOR AND APPLICATION THEREOF IN MEDICINE” (BETTA PHARMACEUTICALS CO., LTD, priority 2020, published 2023)

What was measured:
CD73 (Calu-6 cells) = biological target: T1, CD73 (Calu-6 cells) (Homo sapiens, UniProt P21589); assay: Enzymatic activity detection at the cellular level (Calu-6 cells, AMP substrate, Cell-titer Glo luminescence); format: cell-based; details: enzymatic IC50 at the Calu-6 cell level, 30 min pre-incubation, 120 min at 37° C.
T1 construct: endogenous in cells; host or cells: Calu-6 cells
T1 sequence (P21589 27-549): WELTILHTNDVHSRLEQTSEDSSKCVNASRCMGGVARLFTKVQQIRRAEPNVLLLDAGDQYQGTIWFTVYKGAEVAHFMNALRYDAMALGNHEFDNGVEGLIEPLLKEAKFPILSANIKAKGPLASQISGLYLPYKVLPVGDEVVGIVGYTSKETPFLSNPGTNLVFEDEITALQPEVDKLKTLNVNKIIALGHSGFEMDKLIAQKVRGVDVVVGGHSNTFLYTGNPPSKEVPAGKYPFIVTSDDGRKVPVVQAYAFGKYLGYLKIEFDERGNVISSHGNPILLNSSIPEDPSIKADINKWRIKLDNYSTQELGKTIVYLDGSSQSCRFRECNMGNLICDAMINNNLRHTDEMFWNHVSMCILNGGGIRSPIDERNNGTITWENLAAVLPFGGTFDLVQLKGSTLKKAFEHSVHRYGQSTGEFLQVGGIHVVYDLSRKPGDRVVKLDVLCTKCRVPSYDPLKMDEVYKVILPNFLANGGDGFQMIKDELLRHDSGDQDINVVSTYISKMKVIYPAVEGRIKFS
Protocol: The Calu-6 cells were digested and re-suspended using TM buffer (25 mM Tris, 5 mM MgCl2, pH 7.5). Calu-6 cell suspension was seeded into 96 well cell culture plate, and the number of cells per well was 2.5×10^4, adding volume of 100 μL/well. Compound solution with gradient concentration was prepared by TM buffer, and 50 μL DMSO solution with different concentration was added into each pore cell. […] Pre-incubated in a shaker at 37° C. for 30 min. Each well was added with 50 μL 800 μM AMP solution. The shaker at 37° C. for 120 min was continued to incubate, then the 96-well plates were centrifuged and 50 μL supernatant was transferred to the new 96-well plates. […] The luminescence value was read by the multi-function enzymatic reader and converted into the inhibition percentage: Inhibition percentage=(1−reading/Max)*100. The “maximum value” was DMSO control. IC50 values were obtained by curve fitting with GraphPad Prism software.

[1] = Pharmacokinetic evaluation in mice after intragastric administration (plasma concentration by LC/MS/MS); format: in vivo; details: mouse, Balb/C female mice, single PO 10 mg/kg
Protocol: LC/MS/MS method was used to determine the plasma concentration of the embodiment compound at different time after intragastric administration in mice. Study the pharmacokinetic behavior of the compound in mice and evaluate its pharmacokinetic characteristics.
Methods: A single PK study (PO, 10 mg/kg) was performed on healthy Balb/C female mice (about 20 g) purchased from Beijing Vital River Laboratory Animal Technology Co., Ltd. About 1 hour before administration, a certain amount of drug was weighed and added with 5% DMSO and 95% hydroxypropyl betascyclodextrin (HP-β-CD) solution to form a colorless and clear solution. HP-β-CD solution is a 20% HP-β-CD solution prepared by adding HP-p-CD powder into 0.9% normal saline. Intragastric administration was performed at the dosage volume of 10 mL/kg, and blood was collected through the orbital venous plexus of mice. The blood collection time points were as follows: At 0.25, 0.5, 1.0, 2.0, 4.0, 7.0 and 24.0 hours before and after drug administration, 100 uL whole blood to K2EDTA anticoagulant tubes were taken at each time point, and the collected whole blood samples were centrifuged at 4000 rpm for 10 min. The plasma was separated and stored in the refrigerator at −80° C.
The above plasma samples were added to the pure acetonitrile solution containing the inner target for protein precipitation pre-treatment, centrifugation was performed at 10000 rpm for 10 min, and the supernatant was taken, mixed with water 1:1, and 10 μL to LC-MS/MS was used for detection. The linear range of compounds detected in plasma samples was 1-1000 ng/mL, and the data results were as follows:
The compound of the invention has good pharmacokinetic absorption and obvious pharmacokinetic advantages.

| IC50 (CD73 (Calu-6 cells)) | AUC [1] | Cmax [1] | Tmax [1] | SMILES |
| --- | --- | --- | --- | --- |
| 8.5 nM | 16900 ng·h/mL | 10400 ng/mL | 30 min | C=C[C@H]1C[C@@H]1c1cc(-c2c[nH]c(=O)[nH]c2=O)nnc1Cl [Compound 13, 5-(6-chloro-5-((1S,2R)-2-vinylcyclopropyl)pyridazin-3-yl)pyrimidine-2,4(1H,3H)-dione] |
| 1.3 nM | 10700 ng·h/mL | 5410 ng/mL | 30 min | O=c1[nH]cc(-c2cc([C@H]3C[C@@H]3c3ccccc3)c(Cl)nn2)c(=O)[nH]1 [Compound 57, 5-(6-chloro-5-((S,2S)-2-phenylcyclopropyl)pyridazin-3-yl)pyrimidine-2,4(1H,3H)-dione] |
